This assay relates to SW480 colon carcinoma cells. Nature of the assay: Clonogenic radiation survival of SW480 cells. Conditions: 30 μM FTI-277, 24 hours before irradiation. Format: cell-based, human. As for the experimental part: SW480 cells were treated for 24 hours with 30 μM FTI-277 before irradiation. Clonogenic survival was subsequently assessed in the cells. Treatment with the inhibitor was maintained for 24 hours after irradiation, at which time medium was replaced with inhibitor free medium. Control cells were treated as above with diluent. Open squares: control cells; closed squares: FTI-277 treated cells.
FIG. 18B is a graph depicting a reduction in the radiation survival of SW480 cells following inhibition of K-ras prenylation by FTI-277 and GGTI-298. SW480 cells were treated for 24 hours with 5 μM FTI-277 and 8 μM GGTI-298 before irradiation and assessment of clonogenic survival. Inhibitor treatment was maintained for 24 hours after irradiation, at which time the medium was replaced with inhibitor free medium. Control cells were treated as above with an equal amount of drug-free diluent. Open squares: control cells; closed squares: FTI and GGTI treated cells.

These results are taken from patent US20020034725A1, “SENSITIZATION OF CELLS TO RADIATION AND AND CHEMOTHERAPY” (priority 1996, published 2002).

For the molecule `COC(=O)[C@H](CCSC)NC(=O)c1ccc(NC[C@@H](N)CS)cc1-c1ccccc1` [FTI-277], the radiation survival entry is reported as “reduction in radiation survival”.
